In patent US9006191B2, “Silencing of polo-like kinase expression using interfering RNA” (Protiva Biotherapeutics, Inc., priority 2007, dated 2015):

tested on: HT29 cells; test: HT29 cell viability assay (CellTiter-Blue); assay type: cell-based, human; settings: HT29 cells, SNALP-formulated siRNA at a range of siRNA concentrations, viability at 72 h relative to PBS
Description: (§1) Various PLK-1 siRNAs were formulated as SNALP (“2:40” SNALP formulation: 2% PEG-cDMA; 40% DLinDMA; 10% DSPC; and 48% cholesterol) and evaluated for their inhibitory effects on cell growth in vitro. HT29 (human colon adenocarcinoma) or Neuro2A (mouse neuroblastoma) cells were treated with various PLK-1 SNALP at a range of siRNA concentrations and their effect on cell viability was evaluated. Viability of cell cultures is expressed as % viability relative to PBS treated controls.
Additional PLK-1 siRNA molecules were formulated as SNALP (“2:40” SNALP formulation: 2% PEG-cDMA; 40% DLinDMA; 10% DSPC; and 48% cholesterol) and evaluated for their inhibitory effects on cell growth in vitro. HT29 or Neuro2A cells were plated in triplicate at 5000 cells/well and 2500 cells/well, respectively. PLK-1 SNALP dosages were as follows: 25 nM; 5 nM; and 1 nM. Cell viability analysis was performed at 72 hours following transfection. SNALP containing a non-targeting (GFP) siRNA were used as a negative control. […]
PLK-1 siRNA molecules containing 2′-O-methyl (2′OMe) nucleotides at selective positions within the double-stranded region of the siRNA duplex were formulated as SNALP (“2:40” SNALP formulation: 2% PEG-cDMA; 40% DLinDMA; 10% DSPC; and 48% cholesterol) and evaluated for their inhibitory effects on cell growth in vitro. HT29 cells were plated in triplicate at 5000 cells/well. Cell viability analysis was performed at 72 hours following transfection with a range of PLK-1 SNALP dosages. SNALP containing a non-targeting (GFP) siRNA were used as a negative control.
Cell viability assays. […] Cell viability analysis was performed at 72 hours following transfection with a range of PLK-1 SNALP dosages.

| Substance | cell viability / killing of human tumor cells |
| --- | --- |
| PLK694: siRNA to human PLK-1, SEQ ID NO:9/10 (chain 1 GUGGAUGUGUGGUCCAUUG; chain 2 CAAUGGACCACACAUCCAC; listed as RNA, chemistry not given here) | effective at killing human tumor cells |
| PLK772: siRNA to human PLK-1, SEQ ID NO:11/12 (chain 1 GAGACCUACCUCCGGAUCA; chain 2 UGAUCCGGAGGUAGGUCUC; listed as RNA, chemistry not given here) | effective at killing human tumor cells |
| PLK773 G/GU: 2′OMe-modified PLK773 siRNA, SEQ ID NO:64/63 (chain 1 AGACCUACCUCCGGAUCAANN; chain 2 UUGAUCCGGAGGUAGGUCUNN; chain 1: 2'-O-methyl at 2, 13, other sugars, backbone and the base at N not given here; chain 2: 2'-O-methyl at 9, 12, 17, other sugars, backbone and the base at N not given here; 3' NN overhangs: dT or U ribonucleotide) | more potent than the unmodified PLK1424 sequence |
| PLK832: siRNA to human PLK-1, SEQ ID NO:13/14 (chain 1 GCCGCCUCCCUCAUCCAGA; chain 2 UCUGGAUGAGGGAGGCGGC; listed as RNA, chemistry not given here) | effective at killing human tumor cells |
| PLK1081: siRNA to human PLK-1, SEQ ID NO:17/18 (chain 1 CCAGUGGUUCGAGAGACAG; chain 2 CUGUCUCUCGAACCACUGG; listed as RNA, chemistry not given here) | inhibited the growth of human tumor cells, but at higher siRNA concentrations |
| PLK1195: siRNA to human PLK-1, SEQ ID NO:19/20 (chain 1 GAGGCUGAGGAUCCUGCCU; chain 2 AGGCAGGAUCCUCAGCCUC; listed as RNA, chemistry not given here) | effective at killing human tumor cells |
| PLK1229: siRNA to human PLK-1, SEQ ID NO:21/22 (chain 1 GGGUCAGCAAGUGGGUGGA; chain 2 UCCACCCACUUGCUGACCC; listed as RNA, chemistry not given here) | effective at killing human tumor cells |
| PLK1232: siRNA to human PLK-1, SEQ ID NO:23/24 (chain 1 UCAGCAAGUGGGUGGACUA; chain 2 UAGUCCACCCACUUGCUGA; listed as RNA, chemistry not given here) | effective at killing human tumor cells |
| PLK1233: siRNA to human PLK-1, SEQ ID NO:25/26 (chain 1 CAGCAAGUGGGUGGACUAU; chain 2 AUAGUCCACCCACUUGCUG; listed as RNA, chemistry not given here) | effective at killing human tumor cells |
| PLK1242: siRNA to human PLK-1, SEQ ID NO:27/28 (chain 1 GGUGGACUAUUCGGACAAG; chain 2 CUUGUCCGAAUAGUCCACC; listed as RNA, chemistry not given here) | effective at killing human tumor cells |
| PLK1345: siRNA to human PLK-1, SEQ ID NO:29/30 (chain 1 GACAGCCUGCAGUACAUAG; chain 2 CUAUGUACUGCAGGCUGUC; listed as RNA, chemistry not given here) | inhibited the growth of human tumor cells, but at higher siRNA concentrations |
| PLK1424 U3/GU: 2′OMe-modified PLK1424 siRNA, SEQ ID NO:53/54 (chain 1 AGANCACCCNCCUNAAAUANN; chain 2 UAUUUAANGAGGGUGANCUNN; 2'-OMe modifications, further chemistry not given here) | as potent as the unmodified PLK1424 sequence |
| PLK1424 U4/GU: 2′OMe-modified PLK1424 siRNA, SEQ ID NO:57/54 (chain 1 AGANCACCCNCCUNAAANANN; chain 2 UAUUUAANGAGGGUGANCUNN; 2'-OMe modifications, further chemistry not given here) | as potent as the unmodified PLK1424 sequence |
| PLK1425 3/5: 2′OMe-modified PLK1425 siRNA, SEQ ID NO:67/68 (chain 1 GANCACCCUCCUNAAANAUNN; chain 2 AUAUUUAANGAGGGUGANCNN; 2'-OMe modifications, chemistry not fully specified) | more potent than the unmodified PLK1425 sequence |
| PLK1556: siRNA to human PLK-1, SEQ ID NO:31/32 (chain 1 GCGCCAUCAUCCUGCACCU; chain 2 AGGUGCAGGAUGAUGGCGC; listed as RNA, chemistry not given here) | effective at killing human tumor cells |

tested on: Neuro2A cells; test: Neuro2A cell viability assay (CellTiter-Blue); assay type: cell-based; settings: mouse Neuro2A cells, SNALP-formulated siRNA, viability at 72 h relative to PBS
Description: as §1
Additional PLK-1 siRNA molecules were formulated as SNALP (“2:40” SNALP formulation: 2% PEG-cDMA; 40% DLinDMA; 10% DSPC; and 48% cholesterol) and evaluated for their inhibitory effects on cell growth in vitro. HT29 or Neuro2A cells were plated in triplicate at 5000 cells/well and 2500 cells/well, respectively. PLK-1 SNALP dosages were as follows: 25 nM; 5 nM; and 1 nM. Cell viability analysis was performed at 72 hours following transfection. SNALP containing a non-targeting (GFP) siRNA were used as a negative control.
Additional PLK-1 siRNA molecules were formulated as SNALP (“2:40” SNALP formulation: 2% PEG-cDMA; 40% DLinDMA; 10% DSPC; and 48% cholesterol) and evaluated for their inhibitory effects on cell growth in vitro. HT29 or Neuro2A cells were plated in triplicate at 5000 cells/well and 2500 cells/well, respectively. PLK-1 SNALP dosages were as follows: 30 nM; 10 nM; and 3.3 nM. Cell viability analysis was performed at 72 hours following transfection. SNALP containing a non-targeting (GFP) siRNA were used as a negative control.

| Substance | cell viability / inhibition of cell growth |
| --- | --- |
| PLK1229: siRNA to human PLK-1, SEQ ID NO:21/22 (chain 1 GGGUCAGCAAGUGGGUGGA; chain 2 UCCACCCACUUGCUGACCC; listed as RNA, chemistry not given here) | most potent human/mouse cross-reactive siRNA molecules |
| PLK1232: siRNA to human PLK-1, SEQ ID NO:23/24 (chain 1 UCAGCAAGUGGGUGGACUA; chain 2 UAGUCCACCCACUUGCUGA; listed as RNA, chemistry not given here) | most potent human/mouse cross-reactive siRNA molecule |
| PLK1345: siRNA to human PLK-1, SEQ ID NO:29/30 (chain 1 GACAGCCUGCAGUACAUAG; chain 2 CUAUGUACUGCAGGCUGUC; listed as RNA, chemistry not given here) | effective at inhibiting the growth of mouse Neuro2A cells at higher siRNA concentrations |
| mPLK1424: siRNA to mouse PLK-1, SEQ ID NO:35/36 (chain 1 AGAUCACUCUCCUCAACUA; chain 2 UAGUUGAGGAGAGUGAUCU; listed as RNA, chemistry not given here) | most active mouse-specific siRNA sequences |
| mPLK1425: siRNA to mouse PLK-1, SEQ ID NO:37/38 (chain 1 GAUCACUCUCCUCAACUAU; chain 2 AUAGUUGAGGAGAGUGAUC; listed as RNA, chemistry not given here) | most active mouse-specific siRNA sequences |
| mPLK1607: siRNA to mouse PLK-1, SEQ ID NO:43/44 (chain 1 AGGACCACACCAAACUUAU; chain 2 AUAAGUUUGGUGUGGUCCU; listed as RNA, chemistry not given here) | most active mouse-specific PLK-1 siRNA sequences |
| mPLK1608: siRNA to mouse PLK-1, SEQ ID NO:45/46 (chain 1 GGACCACACCAAACUUAUC; chain 2 GAUAAGUUUGGUGUGGUCC; listed as RNA, chemistry not given here) | most active mouse-specific PLK-1 siRNA sequences |
| mPLK1668: siRNA to mouse PLK-1, SEQ ID NO:49/50 (chain 1 GAGGGACUUCCAAACGUAC; chain 2 GUACGUUUGGAAGUCCCUC; listed as RNA, chemistry not given here) | most active mouse-specific PLK-1 siRNA sequences |

tested on: IFIT1 mRNA, serum IFNα; test: In vivo immune stimulation assay in Balb/c mice (IFIT1 mRNA, serum IFNα); settings: SNALP-formulated siRNA IV, 4-6 h
Description: Balb/c mice (n=4 per group) were administered 2.5 mg/kg siRNA or lipid vehicle; serum IFNα (pg/mL) and IFIT1 mRNA (relative to GAPDH) from whole liver lysates were assessed after 4, 8, and 16 h by ELISA and bDNA assay, respectively. […] (b) Serum IFNα and (c) liver IFIT1 mRNA were assessed 4 h after administration (mean+SD, n=4).
SNALP-formulated Luc (unmodified) and the 2′OMe-modified Luc-U/U, PLK1424-2/A, PLK773-1/B, or KSP2263-U/U siRNA were administered at 2 mg/kg i.v. to Balb/C mice. (A) IFIT1 relative to GAPDH mRNA in liver and spleen was assessed at 4 h by bDNA analysis. […] Serum IFNα was assessed at 6 h by ELISA. […] Values represent mean+SD (n=4).
IFIT1 mRNA and serum cytokines were assessed 4-6 h after SNALP administration based on the approximate time of peak response for these markers. In these studies, SNALP-formulated native Luc siRNA (Table 6) was used as a positive control for immune stimulation.
In vivo immune stimulation assays. […] 6-8 week old Balb/C mice were obtained from Harlan and subject to a two week acclimation period prior to use. Mice were administered SNALP formulated siRNA (2 mg/kg) in PBS via standard intravenous injection in the lateral tail vein. Blood was collected by cardiac puncture and processed as plasma for cytokine analysis. Liver and spleen were collected into RNALater (Sigma Co.) for IFIT1 mRNA analysis.
Measurement of IFIT1 mRNA in mouse tissues. Murine liver and spleen were processed for bDNA assay to quantitate IFIT1 mRNA as described above. The IFIT1 probe set was specific to mouse IFIT1 mRNA (positions 4-499 of NM—008331) and the GAPDH probe set was specific to mouse GAPDH mRNA (positions 9-319 of NM—008084). Data is shown as the ratio of IFIT1 relative light units (RLU) to GAPDH RLU.
Cytokine ELISA. All cytokines were quantified using sandwich ELISA kits. These were mouse interferon-α (PBL Biomedical; Piscataway, N.J.) and human and mouse IL-6 (BD Biosciences; San Diego, Calif.).

| Substance | serum IFNα / serum cytokine response |
| --- | --- |
| U(S)-ApoB1: ApoB-1 siRNA with 2′OMe-modified sense strand, SEQ ID NO:284/285 (sense GNCANCACACNGAANACCAAN; antisense AUUGGUAUUCAGUGUGAUGACAC; 2'-OMe on sense strand, chemistry not fully specified) | no measurable serum cytokine response |

same assay, conditions: SNALP-formulated siRNA IV, 4 h

| Substance | IFIT1 mRNA induction in liver and spleen |
| --- | --- |
| U(S)-ApoB1: ApoB-1 siRNA with 2′OMe-modified sense strand, SEQ ID NO:284/285 (sense GNCANCACACNGAANACCAAN; antisense AUUGGUAUUCAGUGUGAUGACAC; 2'-OMe on sense strand, chemistry not fully specified) | induction of IFN-inducible p56 IFIT1 mRNA in the liver and spleen |
